Among the data in ChEMBL document CHEMBL6114970, “Development of carbazole-based molecules for inhibition of mutant hSOD1 protein aggregation in Amyotrophic Lateral Sclerosis” (Bioorg Med Chem, 2025) are inhibition, Activity and IC50 values, retold here.

Active and inactive are the calls of the source. No cut-off for these calls is given here.

The species entered for data set [1] is Homo sapiens. Put plainly: Inhibition of TCEP-treated human SOD1 G85R mutant aggregation at 50 uM measured after 24 hrs by thioflavin-T fluorescence assay relative to control.
Data set [2] is filed under the species Homo sapiens. Put plainly: Inhibition of TCEP-treated human SOD1 A4V mutant aggregation at 50 uM measured after 24 hrs by thioflavin-T fluorescence assay relative to control.
The species entered for data set [3] is Homo sapiens. Briefly: Inhibition of TCEP-treated human SOD1 G93A mutant aggregation at 50 uM measured after 24 hrs by thioflavin-T fluorescence assay relative to control.
Data set [4] relates to N2a. Briefly: Protection against MG132-induced SOD1 aggregation-associated apoptosis in mouse Neuro2a cells over expressing hSOD1 G85R mutant assessed as late apoptotic cells preincubated for 24 hrs followed by MG132 addition and measured after 24 hrs by Annexin V-APC/propidium iodide staining based flow cytometry (reference value: 20.93 to 23.01 %). The following applies: time 48 hrs. The class given is functional.

The species entered for data set [5] is Homo sapiens. Put plainly: Inhibition of TCEP-treated human SOD1 G85R mutant aggregation assessed as size of protein at 50 uM measured after 24 hrs at 37 deg C by dynamic light scattering analysis (reference value: 151.1 nm).
Data set [6] concerns N2a. Put plainly: Protection against MG132-induced SOD1 aggregation-associated apoptosis in mouse Neuro2a cells over expressing hSOD1 G85R mutant assessed as upregulation of Bcl-2 expression preincubated for 24 hrs followed by MG132 addition and measured after 24 hrs by Western blot analysis. It is filed as functional, cell-based. The settings on record: time 48.0 hrs.
Data set [7] is described as follows: (§1) Inhibition of TCEP-treated human SOD1 A4V mutant aggregation measured after 24 hrs by thioflavin-T fluorescence assay.
For data set [8], the species on record is Homo sapiens. Described as §1.
For data set [9], the system named is N2a. Put plainly: Protection against MG132-induced SOD1 aggregation-associated cytotoxicity in mouse Neuro2a cells over expressing hSOD1 G85R mutant assessed as increase in cell viability at 1 uM preincubated for 24 hrs followed by MG132 addition and measured after 24 hrs by MTT assay. The class given is functional, cell-based. The following applies: time 48.0 hrs.

The nature of data set [10]: (§2) Inhibition of TCEP-treated human SOD1 G93A mutant aggregation measured after 24 hrs by thioflavin-T fluorescence assay.
The species entered for data set [11] is Homo sapiens. The description is as §2.
Data set [12] is filed under the species Homo sapiens. Briefly: Inhibition of TCEP-treated human SOD1 A4V mutant aggregation assessed as size of protein at 50 uM measured after 24 hrs at 37 deg C by dynamic light scattering analysis (reference value: 154.4 nm).
The species entered for data set [13] is Homo sapiens. Put plainly: Inhibition of TCEP-treated human SOD1 A4V mutant aggregation assessed as formation of few slender fibrils at 50 uM measured after 24 hrs by 1% uranyl acetate staining based transmission electron microscopy.
For data set [14], the system named is N2a. Briefly: Protection against MG132-induced SOD1 aggregation-associated apoptosis in mouse Neuro2a cells over expressing hSOD1 G85R mutant assessed as necrotic cells preincubated for 24 hrs followed by MG132 addition and measured after 24 hrs by Annexin V-APC/propidium iodide staining based flow cytometry (reference value: 2.23 %). It is filed as functional. The settings on record: time 48 hrs.

Data set [15] has as its system N2a. Briefly: Cytotoxicity against mouse Neuro2a cells over expressing hSOD1 G85R mutant assessed as reduction in cell viability at 25 uM measured after 48 hrs by MTT assay. The class given is toxicity, cell-based.
The species entered for data set [16] is Homo sapiens. Briefly: Inhibition of TCEP-treated human SOD1 G85R mutant aggregation assessed as formation of few slender fibrils at 50 uM measured after 24 hrs by 1% uranyl acetate staining based transmission electron microscopy.
The test system of data set [17] is N2a. Put plainly: Protection against MG132-induced SOD1 aggregation-associated cytotoxicity in mouse Neuro2a cells over expressing hSOD1 G85R mutant assessed as cell viability at 5 to 10 uM preincubated for 24 hrs followed by MG132 addition and measured after 24 hrs by MTT assay (reference value: 45%). It is filed as functional. The following applies: dose 5-10 µM, time 48 hrs.

Data set [18] is described as follows: (§3) Inhibition of TCEP-treated human SOD1 G85R mutant aggregation measured after 24 hrs by thioflavin-T fluorescence assay.
The species named for data set [19] is Homo sapiens. The description is as §3.
Data set [20] is filed under the species Homo sapiens. Put plainly: Inhibition of TCEP-treated human SOD1 G93A mutant aggregation assessed as formation of few slender fibrils at 50 uM measured after 24 hrs by 1% uranyl acetate staining based transmission electron microscopy.
The subject of data set [21] is N2a. Briefly: Protection against MG132-induced SOD1 aggregation-associated cytotoxicity in mouse Neuro2a cells over expressing hSOD1 G85R mutant assessed as restoration of normal morphology by phase contrast microscopy. The class given is functional, cell-based.
Data set [22] concerns N2a. Put plainly: Protection against MG132-induced SOD1 aggregation-associated apoptosis in mouse Neuro2a cells over expressing hSOD1 G85R mutant assessed as upregulation of Xiap expression preincubated for 24 hrs followed by MG132 addition and measured after 24 hrs by Western blot analysis. The class given is functional, cell-based. The settings on record: time 48.0 hrs.

Data set [23] is filed under the species Homo sapiens. Briefly: Inhibition of TCEP-treated human SOD1 G93A mutant aggregation assessed as size of protein at 50 uM measured after 24 hrs at 37 deg C by dynamic light scattering analysis (reference value: 84.38 nm).
Data set [24] relates to N2a. Briefly: Protection against MG132-induced SOD1 aggregation-associated apoptosis in mouse Neuro2a cells over expressing hSOD1 G85R mutant assessed as early apoptotic cells preincubated for 24 hrs followed by MG132 addition and measured after 24 hrs by Annexin V-APC/propidium iodide staining based flow cytometry (reference value: 1.41 %). It is filed as functional. The following applies: time 48 hrs.

Data set [25] concerns N2a. Briefly: Cytotoxicity against mouse Neuro2a cells over expressing hSOD1 G85R mutant assessed as reduction in cell viability up to 10 uM measured after 48 hrs by MTT assay. It is filed as toxicity, cell-based.
Data set [26] relates to N2a. Put plainly: Protection against MG132-induced SOD1 aggregation-associated cytotoxicity in mouse Neuro2a cells over expressing hSOD1 G85R mutant assessed as restoration of cell viability by phase contrast microscopy. It is filed as functional, cell-based.
Data set [27] deals with N2a. Briefly: Protection against MG132-induced SOD1 aggregation-associated oxidative stress in mouse Neuro2a cells over expressing hSOD1 G85R mutant assessed as reduction in ROS level at 10 uM preincubated for 24 hrs followed by MG132 addition and measured after 24 hrs by H2DCFDA dye based flow cytometry. The class given is functional, cell-based. The settings on record: time 48.0 hrs.

Consider `CCn1c2ccccc2c2cc(NC(=O)NNC(=S)Nc3ccc(OC(F)(F)F)cc3)ccc21`, for which the inhibition was found to be 63.2% in the data set filed under Homo sapiens [1], 69.7% in the data set listed under Homo sapiens [2] and 72.3% in the data set listed under Homo sapiens [3].

Take `CCn1c2ccccc2c2cc(NC(=O)NNC(=S)Nc3ccccc3)ccc21`: the Activity was 8.26% in the data set on N2a [4]; 36.3 nm in the data set filed under Homo sapiens [5]; 44.6 nm in the data set filed under Homo sapiens [12]; 2.64% with N2a [14]; “Toxic” in the data set on N2a [15]; 60% in the data set with N2a [17]. Besides, the Activity was 25.2 nm in the data set listed under Homo sapiens [23], 1.04% in the data set with N2a [24], “Non-toxic” in the data set with N2a [25] and “Active; Significant Effect Observed” with N2a [27]. Further, the outcome in the data set on N2a [6], in the data set with N2a [21], in the data set with N2a [22] and in the data set with N2a [26] was Active. The IC50 in data set [7] worked out at 32.4 µM; in [10], 26 µM; in data set [18] it was 31.3 µM. Moreover, the inhibition entry was “Dose-dependent-effect” in the data set listed under Homo sapiens [8]; 74.8% in the data set listed under Homo sapiens [1]; 71.3% in the data set filed under Homo sapiens [2]; “Dose-dependent-effect” in the data set filed under Homo sapiens [11]; “Active; Displayed Better Reduction In Aggregate Formation Than Curcumin” in the data set filed under Homo sapiens [13]; “Active; Displayed Better Reduction In Aggregate Formation Than Curcumin” in the data set listed under Homo sapiens [16]. In addition, the inhibition entry in the data set filed under Homo sapiens [19] is “Dose-dependent-effect”; in the data set filed under Homo sapiens [20], “Active; Displayed Better Reduction In Aggregate Formation Than Curcumin”; in the data set filed under Homo sapiens [3] it was 88.3%. Besides, in the data set on N2a [9], the result was inactive.

`CCn1c2ccccc2c2cc(NC(=O)NNC(=O)Nc3ccc(F)cc3)ccc21`: the inhibition in the data set listed under Homo sapiens [1] was 43.4%; in the data set listed under Homo sapiens [2], 46.1%; in the data set listed under Homo sapiens [3], 71.9%.

With `CCn1c2ccccc2c2cc(NC(=O)NNC(=O)Nc3ccc(Cl)cc3)ccc21`, the inhibition in the data set filed under Homo sapiens [1] was found to be 63.3%; in the data set filed under Homo sapiens [2] it was 59.3%; in the data set listed under Homo sapiens [3], 33.9%.

As to `CCn1c2ccccc2c2cc(NC(=O)NNC(=S)NCc3ccccc3)ccc21`, the inhibition in the data set listed under Homo sapiens [1] was 56.4%; in the data set filed under Homo sapiens [2], 54.2%; in the data set filed under Homo sapiens [3], 69.8%.

For `CCn1c2ccccc2c2cc(NC(=O)NNC(=O)NCc3ccccc3)ccc21`, the inhibition in the data set listed under Homo sapiens [1] amounted to 70.7%; in the data set filed under Homo sapiens [2] it was 31.9%; in the data set filed under Homo sapiens [3], 25.1%.

For the compound `CCn1c2ccccc2c2cc(NC(=O)NNC(=S)NCCc3ccccc3)ccc21`, the values for the inhibition in the data set filed under Homo sapiens [1], in the data set filed under Homo sapiens [2] and in the data set filed under Homo sapiens [3] were 66.1%, 68.5% and 65.4%, respectively.

For the compound `CCn1c2ccccc2c2cc(NC(=O)NNC(=S)Nc3ccc(Cl)cc3)ccc21`, the values for the inhibition in the data set listed under Homo sapiens [1], in the data set filed under Homo sapiens [2] and in the data set listed under Homo sapiens [3] were 58.3%, 61.1% and 76.4%, respectively.

Consider `CCn1c2ccccc2c2cc(NC(=O)NNC(=O)NCCc3ccccc3)ccc21`, for which the inhibition in the data set listed under Homo sapiens [1] was determined as 70%; in the data set listed under Homo sapiens [2], 62.8%; in the data set filed under Homo sapiens [3], 44.5%.

Regarding `CCn1c2ccccc2c2cc(NC(=O)NNC(=O)Nc3ccc(OC(F)(F)F)cc3)ccc21`, the inhibition in the data set filed under Homo sapiens [1] is 63.8%; in the data set listed under Homo sapiens [2] it was 47.1%; in the data set filed under Homo sapiens [3] it was 73.8%.

Consider `CCn1c2ccccc2c2cc(NC(=O)NNC(=O)Nc3ccc([N+](=O)[O-])cc3)ccc21`, for which the values for the inhibition in the data set filed under Homo sapiens [1], in the data set listed under Homo sapiens [2] and in the data set listed under Homo sapiens [3] were 43.1%, 55.3% and 48.2%, respectively.

`CCn1c2ccccc2c2cc(NC(=O)NNC(=S)Nc3ccc(OC)cc3)ccc21`: the inhibition in the data set filed under Homo sapiens [1] worked out at 70.6%; in the data set filed under Homo sapiens [2], 58.8%; in the data set filed under Homo sapiens [3], 72.5%.

With `Nc1nc2ccc(OC(F)(F)F)cc2s1`, the inhibition result in the data set listed under Homo sapiens [1] and in the data set filed under Homo sapiens [3] was “inactive” throughout. Besides, the inhibition in the data set listed under Homo sapiens [2] was found to be 9.88%.

As for `COc1cc(/C=C/C(=O)CC(=O)/C=C/c2ccc(O)c(OC)c2)ccc1O` [CURCUMIN], the Activity in the data set on N2a [4] was 8.19%; in the data set listed under Homo sapiens [5], 40.2 nm; in the data set listed under Homo sapiens [12] it was 52.1 nm; in the data set with N2a [14], 2.58%; in the data set with N2a [15] it was “Toxic”; with N2a [17], 60%. For the same compound, the Activity in the data set filed under Homo sapiens [23] was 31.7 nm; in the data set on N2a [24], 0.97%; in the data set on N2a [25], “Non-toxic”; with N2a [27], “Active; Significant Effect Observed”. For the same compound, the result with N2a [6], with N2a [21], in the data set with N2a [22] and in the data set with N2a [26] was Active. For the same compound, the values for the IC50 in [7], in [10] and in data set [18] were 40.9 µM, 32.3 µM and 64.1 µM, respectively. The inhibition result in the data set filed under Homo sapiens [8] was “Dose-dependent-effect”; in the data set listed under Homo sapiens [1] it was 42.8%; in the data set filed under Homo sapiens [2], 58.7%; in the data set listed under Homo sapiens [11], “Dose-dependent-effect”; in the data set filed under Homo sapiens [19], “Dose-dependent-effect”. For the same compound, the result with N2a [9] was inactive. In addition, the inhibition entry in the data set filed under Homo sapiens [13], in the data set listed under Homo sapiens [16] and in the data set listed under Homo sapiens [20] was “Active” throughout.

Consider `CCn1c2ccccc2c2cc(NC(=O)NNC(=S)Nc3ccc([N+](=O)[O-])cc3)ccc21`, for which the inhibition in the data set filed under Homo sapiens [1] worked out at 64.4%; in the data set listed under Homo sapiens [2], 60%; in the data set listed under Homo sapiens [3], 72.6%.

Consider `CCn1c2ccccc2c2cc(NC(=O)NNC(=O)Nc3ccc(OC)cc3)ccc21`, for which the inhibition in the data set listed under Homo sapiens [1] came to 38.2%; in the data set filed under Homo sapiens [2], 40.6%; in the data set listed under Homo sapiens [3] it was 61.8%.

Turning to `CCn1c2ccccc2c2cc(NC(=O)NNC(=O)Nc3ccccc3)ccc21`, the inhibition in the data set listed under Homo sapiens [1] stood at 65.9%; in the data set listed under Homo sapiens [2], 46.9%; in the data set filed under Homo sapiens [3] it was 63.4%.
